{"source": "patent US20150290439A1", "about": "“METHODS FOR BILATERAL CENTRAL AUTONOMIC NEUROMODULATION” (priority 2014, published 2015)", "origin": "cited, not measured here", "key": {"[1]": {"test": "not given", "remark": "listed apart in the source"}, "[2]": {"conditions": "reason for discontinuation"}, "[3]": {"biological_target": "calcitonin gene-related peptide receptor (Homo sapiens, UniProt O60894+Q16602)", "sequence (Q16602 23-461)": "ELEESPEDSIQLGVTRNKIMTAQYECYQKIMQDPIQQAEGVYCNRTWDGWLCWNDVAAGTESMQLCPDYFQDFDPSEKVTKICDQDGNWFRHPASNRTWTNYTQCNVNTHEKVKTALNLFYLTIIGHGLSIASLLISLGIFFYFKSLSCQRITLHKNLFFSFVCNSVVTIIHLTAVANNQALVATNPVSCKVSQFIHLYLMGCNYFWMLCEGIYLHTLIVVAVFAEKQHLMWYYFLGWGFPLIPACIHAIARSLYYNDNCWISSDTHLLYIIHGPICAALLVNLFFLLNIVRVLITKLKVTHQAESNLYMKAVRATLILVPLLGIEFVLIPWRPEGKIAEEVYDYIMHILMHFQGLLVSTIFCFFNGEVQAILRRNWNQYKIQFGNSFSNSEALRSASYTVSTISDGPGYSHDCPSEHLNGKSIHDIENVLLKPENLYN", "sequence (O60894 27-148)": "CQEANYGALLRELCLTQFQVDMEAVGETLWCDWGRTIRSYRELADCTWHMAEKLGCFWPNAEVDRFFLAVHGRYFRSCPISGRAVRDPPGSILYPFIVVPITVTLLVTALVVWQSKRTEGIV"}}}
{"smiles": "Cc1cc(C[C@@H](OC(=O)N2CCC(N3CCc4ccccc4NC3=O)CC2)C(=O)N2CCC(N3CCOCC3)CC2)cc(C)c1O", "note": "[BI44370A]", "values": [{"measurement": "efficacy in Phase 2 clinical study", "value": "efficacy demonstrated"}]}
{"smiles": "N[C@@H]1c2cccnc2[C@H](OC(=O)N2CCC(n3c(=O)[nH]c4ncccc43)CC2)CC[C@H]1c1cccc(F)c1F", "note": "[BMS-927711]", "values": [{"measurement": "efficacy of the highest tested dose", "setting": "[1]; 600 mg", "value": "no additional benefit over the doses of 75 mg and 150 mg"}, {"measurement": "secondary endpoints versus placebo", "setting": "[1]; Phase 2b, acute migraine", "value": "most (and sometimes all) doses were superior to placebo"}, {"measurement": "tolerability", "setting": "[1]; acute dosing", "value": "placebo-like"}, {"measurement": "primary efficacy endpoint: proportion of pain-free subjects at 2 hours post dose", "setting": "[1]; all doses, compared with sumatriptan, study not powered for direct comparisons", "value": "numerically inferior to sumatriptan"}, {"measurement": "efficacy as a function of dose", "setting": "[1]; doses up to 300 mg", "value": "increased up to the dose of 75 mg when a plateau effect seemed to have been reached for doses between 75 mg and 300 mg"}, {"measurement": "serious adverse events", "setting": "[1]; in the trial", "value": "No serious adverse event was reported"}, {"measurement": "photophobia and phonophobia", "setting": "[1]; most effective doses", "value": "significantly improved"}, {"measurement": "secondary endpoints versus sumatriptan", "setting": "[1]; most effective doses", "value": "numerically superior to sumatriptan"}, {"measurement": "efficacy of a single dose", "setting": "[1]; single dose", "value": "has been demonstrated"}]}
{"smiles": "O=C(CN1C(=O)C2(CCCC2)NC[C@H]1c1cc(F)cc(F)c1)Nc1ccc2c(c1)C[C@@]1(C2)C(=O)Nc2ncccc21", "note": "[MK-3207]", "values": [{"measurement": "liver toxicity", "setting": "[2]", "value": "concerns of liver toxicity"}, {"measurement": "potency relative to telcagepant", "setting": "[3]", "value": "significantly more potent than telcagepant"}]}
{"smiles": "O=C(N[C@@H]1CC[C@@H](c2cccc(F)c2F)CN(CC(F)(F)F)C1=O)N1CCC(n2c(=O)[nH]c3ncccc32)CC1", "note": "[Telcagepant]", "values": [{"measurement": "liver toxicity", "setting": "[2]", "value": "concerns of liver toxicity after frequent use"}]}
